In US20170198292A1, “Methods and Compositions for Modulating Lung Cancer Tumor Initiating Cells (TIC), and Oxytocin Receptor (OXTR) Modulatory Agents for Use in Practicing the Same” (The Board of Trustees of the Leland Stanford Junior …, priority 2014, published 2017):

Experiments:
Format in all cases: cell-based, human
[1] = test system: tumor spheres derived from primary SQCC cells; assay: Sphere-forming assay, primary SQCC cells; details: at 5 μM; three days
Description: All gene expression and survival data were obtained from publicly-available resources: NCI TCGA and NCBI GEO. Human lung cancer tissue samples were purchased from US Biomax. Cell imaging was acquired using a confocal laser scanning microscope at the Stanford Fluorescence Microscopy Core. FACS was done at the Stanford FACS core facility. All sphere-forming assays and mouse xenograft model were performed at the Stanford Transgenic, Knockout and Tumor Model Center. qRT-PCR and sequencing was performed at Stanford Protein and Nucleic Acid Facility. • A. Text mining of lung TIC associated literature. PubMed literatures were queried on Apr. 13, 2015, using the search term, (“Neoplastic Stem Cells”[majr] OR “tumor-propagating cells”[All Fields]) AND “lung cancer”[All Fields]. […] Words with a prefix “CD” followed by digits were extracted from the title and abstract of each article. Resulted terms were manually examined. […] The number of unique occurrence of each term is counted in titles and abstracts. […] Meta-analysis of correlations were performed using R package meta, where fixed and random effects estimates were calculated and inverse variance weighting was used for pooling. […] Quantitative IF imaging signal of human lung tissue samples were measured using the Bioquant image analysis software in the Nikon 8000 microscope and Leica DMI 6000B. • E. Flow Cytometry. […]

[2] = test system: regular H226 and H520 cells; assay: Proliferation of regular cancer cells; details: for cell proliferation of regular H226 and H520 cells: 3-day treatment
Description: All gene expression and survival data were obtained from publicly-available resources: NCI TCGA and NCBI GEO. Human lung cancer tissue samples were purchased from US Biomax. Cell imaging was acquired using a confocal laser scanning microscope at the Stanford Fluorescence Microscopy Core. FACS was done at the Stanford FACS core facility. All sphere-forming assays and mouse xenograft model were performed at the Stanford Transgenic, Knockout and Tumor Model Center. qRT-PCR and sequencing was performed at Stanford Protein and Nucleic Acid Facility. • A. Text mining of lung TIC associated literature. PubMed literatures were queried on Apr. 13, 2015, using the search term, (“Neoplastic Stem Cells”[majr] OR “tumor-propagating cells”[All Fields]) AND “lung cancer”[All Fields]. […] Words with a prefix “CD” followed by digits were extracted from the title and abstract of each article. Resulted terms were manually examined. Immune cell CD markers were excluded from the list. CD marker with positive sign, such as CD133+, was treated as different from CD133 or CD133−. The number of unique occurrence of each term is counted in titles and abstracts. Terms occurred in at least two different articles were selected for ranking by its occurrence frequency. • B. Primary Tumor Cell Preparation. SQCC samples were collected from patients according to protocols approved by the Stanford IRB board. Samples were washed, dissociated, and incubated in DNase and collagenase/dispase. After incubation, cell clusters and red blood cells were removed. The single cells were resuspended and prepared for cell culture and staining. • C. Microarray datasets. The TOGA lung cancer gene expression datasets were downloaded from the TOGA data portal on September 2012. […] Meta-analysis of correlations were performed using R package meta, where fixed and random effects estimates were calculated and inverse variance weighting was used for pooling. […] Quantitative IF imaging signal of human lung tissue samples were measured using the Bioquant image analysis software in the Nikon 8000 microscope and Leica DMI 6000B. • E. Flow Cytometry. […]

H226 and H520 cells = assay: Colony formation; details: statistically significant at 0.5 μM, 5 μM and 10 μM
From the text: To determine whether the expression of OXTR is associated with the growth of regular cancer cells and TICs, we treated regular cancer cells and tumor spheres of SQCC cell lines with an OXTR specific inhibitor (Manning et al.,“Oxytocin and vasopressin agonists and antagonists as research tools and potential therapeutics,” Journal of neuroendocrinology (2012) 24: 609-628), L-368,899 (L3) to suppress its activity, or its natural ligand oxytocin (OXT) to induce its activity.

[3] = test system: tumor spheres of H226 and H520 cells; assay: Sphere-forming assay (tumor spheres / TIC growth)
Description: All gene expression and survival data were obtained from publicly-available resources: NCI TCGA and NCBI GEO. Human lung cancer tissue samples were purchased from US Biomax. Cell imaging was acquired using a confocal laser scanning microscope at the Stanford Fluorescence Microscopy Core. FACS was done at the Stanford FACS core facility. All sphere-forming assays and mouse xenograft model were performed at the Stanford Transgenic, Knockout and Tumor Model Center. qRT-PCR and sequencing was performed at Stanford Protein and Nucleic Acid Facility. • A. Text mining of lung TIC associated literature. PubMed literatures were queried on Apr. 13, 2015, using the search term, (“Neoplastic Stem Cells”[majr] OR “tumor-propagating cells”[All Fields]) AND “lung cancer”[All Fields]. […] Words with a prefix “CD” followed by digits were extracted from the title and abstract of each article. Resulted terms were manually examined. Immune cell CD markers were excluded from the list. CD marker with positive sign, such as CD133+, was treated as different from CD133 or CD133−. The number of unique occurrence of each term is counted in titles and abstracts. Terms occurred in at least two different articles were selected for ranking by its occurrence frequency. • B. Primary Tumor Cell Preparation. SQCC samples were collected from patients according to protocols approved by the Stanford IRB board. Samples were washed, dissociated, and incubated in DNase and collagenase/dispase. After incubation, cell clusters and red blood cells were removed. The single cells were resuspended and prepared for cell culture and staining. • C. Microarray datasets. The TOGA lung cancer gene expression datasets were downloaded from the TOGA data portal on September 2012. No significant changes in available sample size were found during a recent check. These datasets were selected based on two criteria: explicit pathological diagnosis of SQCC and associated with an actual publication. Pearson or Spearman correlation analysis was used for the association study, depending on whether the distribution of the gene expression data is parametric or non-parametric. Multiple hypothesis testing was corrected using false discovery rates to select associations with a q value less than 0.1. Meta-analysis of correlations were performed using R package meta, where fixed and random effects estimates were calculated and inverse variance weighting was used for pooling. Survival data was extracted from all the datasets whenever they were available. Proportional hazards regression analysis was performed with the gene expression of OXTR and CD133 as covariates. Proportional hazard hypothesis was test based on weighted residuals. • D. Cell Culture and Imaging. H226, H520, HCC827, H522 and NL20 cell lines were purchased from ATCC and cultured in recommended cell medium for bulk cancer cell growth. HCC95 and H157 were from Dr. Sage's laboratory. APC conjugated mouse anti-CD133 Ab (BioLegend 14208), goat anti-OXTR Ab (Life Technologies ab87312) with anti-goat Alexa488 (Life Technologies A11055), rabbit anti-CD44 (Santa Cruz Biotech sc-7946) with anti-rabbit Alexa594 (Life Technologies A21207) and rabbit anti-OXT with anti-rabbit Alexa594 were used to stain CD133, OXTR, CD44 and OXT respectively in human tissue samples and cell lines for immunofluorescence (IF) imaging. Goat F(ab′)2 IgG (Life Technologies 11301C) and isotype control for rabbit primary Ab (Life Technology 08-6199) were used as isotype control of OXTR Ab and CD133 Ab. Quantitative IF imaging signal of human lung tissue samples were measured using the Bioquant image analysis software in the Nikon 8000 microscope and Leica DMI 6000B. • E. Flow Cytometry. Cells were stained with CD133, CD44 or OXTR Ab separately for single channel counting, and stained with CD133 and OXTR Ab for double channel counting and sorting. Cells were also stained for secondary Ab alone for subtraction of non-specific binding. […]

ERK1/2 = ERK1/2 phosphorylation, western blot

| Compound | sphere growth of tumor spheres derived from primary SQCC cells [1] | cell proliferation of regular H226 and H520 cells [2] | colony formation of H226 and H520 cells (H226 and H520 cells) | tumor sphere numbers ([3]; H226 and H520 cells, after 3 days of treatment, statistically significant at 5 μM and 10 μM) | phosphorylation of ERK1/2 in regular H226 and H520 cells (ERK1/2; 100 nM for two days, compared to solvent control) | phosphorylation of ERK1/2 in TICs (ERK1/2; 100 nM for two days, compared to solvent control, tumor spheres of H226 and H520) | tumor sphere size vs solvent control ([3]; H226 and H520 tumor spheres treated for three days) | tumor sphere growth ([3]; both cell lines (H226, H520), statistically significant at as low as 10 nM) | OXT induced phosphorylation of ERK1/2 (ERK1/2; CCs and TICs of H226 and H520 cell lines, co-treatment with OXT) | proliferation in regular cancer cells ([2]; H226 and H520 cells) | rescue of the inhibitory effect by increasing dose of OXT ([3]; H226 and H520) | TIC growth ([3]; H226 and H520 spheres) | OXT induced increase of TIC growth ([3]; both H226 and H520 cells, co-treatment with OXT) |
| --- | --- | --- | --- | --- | --- | --- | --- | --- | --- | --- | --- | --- | --- |
| Cc1ccccc1N1CCN(S(=O)(=O)C[C@]23CC[C@H](C[C@@H]2NC(=O)[C@@H](N)CCS(C)(=O)=O)C3(C)C)CC1 [L3, (S)-2-amino-N-((1S,2S,4R)-7,7-dimethyl-1-((4-o-tolylpiperazin-1-lsulfonyl)methyl)bicyclo[2.2.1]heptan-2-yl)-4-(methylsulfonyl)butanamide] | significantly reduced the sphere growth | neither L3 nor OXT affected the cell proliferation | reduced the colony formation | dose-dependent decrease | – | – | – | – | – | – | – | – | – |
| CC[C@H](C)[C@@H]1NC(=O)[C@H](Cc2ccc(O)cc2)NC(=O)[C@@H](N)CSSC[C@@H](C(=O)N2CCC[C@H]2C(=O)N[C@@H](CC(C)C)C(=O)NCC(N)=O)NC(=O)[C@H](CC(N)=O)NC(=O)[C@H](CCC(N)=O)NC1=O [OXT, oxytocin] | – | neither L3 nor OXT affected the cell proliferation | – | – | unchanged | greatly increased | significantly larger | dose dependent increase | – | – | – | – | – |
| N#CC(=C(/N)Sc1ccccc1N)/C(C#N)=C(\N)Sc1ccccc1N [U0126] | – | – | – | – | – | – | – | – | inhibited | increased proliferation | could not be rescued | dose dependent inhibition | blocked |
